A short description of this series: Urinary metabolites in 24 h urine by HPLC-MS/MS. Format: in vivo, FVB mice. Here is the method: The assessment of the urinary elimination after oral and intravenous administration, in the urine fraction collected 24 h post dose, is reported in Table 6. […] To further investigate this issue, we searched for the presence of urinary metabolites in the 24 h urine samples in one mouse per treatment group. We identified at least eight molecules most likely originating from the parent compounds (Table 7; see Supplementary Figure S1 for the hypothesized structures).
Mice were treated with ZST316 and ZST152 using a dose of 60 mg/Kg (oral gavage) and 30 mg/Kg (intravenous bolus). For pharmacokinetic sampling, blood was collected at 15 and 30 min, and 1, 3, 8, and 24 h post dose. Three mice were analyzed per each time point. After the animals were anesthetized with isoflurane, the blood was drained from the retro-orbital plexus into heparinized tubes, and then centrifuged for 10 min at 4000× g at 4 °C to separate plasma. A 24-h urine fraction was collected in three mice for each drug and route of administration. Plasma and urine samples were stored at −20 °C until analysis by HPLC-MS/MS.
[…] chromatography was performed using a series 200 HPLC system (Perkin Elmer, Waltham, MA, USA) under gradient conditions with separation on a HILIC column, 3 µm, 100 A, 2.1 × 150 mm (Waters, Milford, MA, USA), coupled with a 3 µm, 3.9 × 5.0 mm guard column of the same material at the flow rate of 0.2 mL/min. Gradient features: 10% mobile phase (MP) A (NH4HCO2 10 mM, 10% CH3CN, 0.1% HCOOH) and 90% MP B (CH3CN, 0.1% HCOOH) as the initial constant condition; then to 90% MP A in 6 min and the constant condition for 1.5 min. Return to the start condition in 0.5 min and conditioning for 5.5 min. Total run time: 13.5 min. Mass spectrometric detection was performed using an API 4000 triple quadrupole mass spectrometer (SCIEX, Framingham, MA, USA) supplied with a Turbo Ion Spray source set at 350 °C and −4200 V, analyzing biological samples with electrospray ionization (ESI) operating in negative ion mode. Purified air was used as nebulizer gas (Gas 1) and heater gas (Gas 2) and N2 was used as curtain gas and collision activated dissociation gas. They were set to 40, 50, 20, and 4 instrument units (psi), respectively. The declustering potential (DP) was set at −119 V and the collision exit potential (CXP) at –10 V. All parameters of the source were defined by direct infusion of ZST316 and ZST152 1 µg/mL in mobile phase B. The final quantification was carried out in Selected Reaction Monitoring (SRM) with the following transitions: m/z 307.9 → 208.0 (collision energy of −29.5 eV) for ZST316 and m/z 271.9 → 170.9 (collision energy −24.7 eV) for ZST152 (Figure 2 and Figure 3). Data were processed with the software package Analyst 1.6.2 (AB SCIEX).

Where [1] appears, read: after intravenous ZST152, total dose 1.410 mg, mouse #1, 24 h urine.
[2] abbreviates: after intravenous ZST316, total dose 1.326 mg, mouse #1, 24 h urine.
Where [3] appears, read: after oral ZST152, total dose 1.158 mg, mouse #3, 24 h urine.
Where [4] appears, read: after oral ZST316, total dose 1.308 mg, mouse #3, 24 h urine.

Each structure is given as a SMILES string.

Turning to `COCCNC(=N)N` [M1], the “% of Dose recovered in urine” value under setting [1] turned out to be 0.039%, the “% of Dose recovered in urine” value under setting [2] is on record as 0.017%, the “% of Dose recovered in urine” value under setting [3] amounted to 0.088% and the “% of Dose recovered in urine” value under setting [4] was found to be 0.21%. Further, the “Amount Recovered in urine” value is, setting by setting: under setting [1], 0.55 µg; under setting [2], 0.23 µg; under setting [3], 1.02 µg; under setting [4], 2.74 µg.
Regarding `COCCNC(=N)NCCCC=O` [M2], under setting [1], the “% of Dose recovered in urine” value came to 9.05% and the “Amount Recovered in urine” value came out at 128 µg. Further, under setting [3], the “% of Dose recovered in urine” value came out at 0.023% and the “Amount Recovered in urine” value is listed as 0.27 µg.
In the same order, the values of `COCCNC(=N)NCCCCO` [M3] are 0.19%, 2.62 µg, 4.2% and 49.1 µg.
Regarding `COCCNC(=N)NCCCC(=O)O` [M4], the “% of Dose recovered in urine” value reads like this: under setting [1], 6.6%; under setting [2], 0.66%; under setting [3], 7.6%; under setting [4], 8.2%. The “Amount Recovered in urine” value is 93.3 µg under setting [1], 8.71 µg under setting [2], 87.8 µg under setting [3] and 108 µg under setting [4].
Take `COCCNC(=N)NCCC[C@H](N)C=NO` [M6]: the “% of Dose recovered in urine” value is, setting by setting: under setting [1], 0.10%; under setting [3], 0.014%. The “Amount Recovered in urine” value is recorded as 1.48 µg under setting [1] and 0.16 µg under setting [3].
For `COCCNC(=N)NCCC[C@H](N)C(=O)O` [M7], the “% of Dose recovered in urine” value runs as follows: under setting [1], 0.13%; under setting [2], 6.5%; under setting [3], 0.22%; under setting [4], 76%. Besides, the “Amount Recovered in urine” value under setting [1] is listed as 1.77 µg, the “Amount Recovered in urine” value under setting [2] was 86.1 µg, the “Amount Recovered in urine” value under setting [3] was found to be 2.58 µg and the “Amount Recovered in urine” value under setting [4] came to 991 µg.
Turning to `COCCNC(=N)NCCC[C@H](O)C(=O)O` [M8], the “% of Dose recovered in urine” value runs as follows: under setting [2], 0.37%; under setting [4], 4.1%. For the same molecule, the “Amount Recovered in urine” value under setting [2] was found to be 4.87 µg and the “Amount Recovered in urine” value under setting [4] worked out at 53.4 µg.
The matching figures for `COCCNC(=N)NCCC[C@H](O)C(=O)NC(C)=O` [M9]: 0.32%, 5.4%, 4.28 µg and 71.0 µg.

The record behind these values is article PMC8840040, “Pharmacokinetic Characterization of the DDAH1 Inhibitors ZST316 and ZST152 in Mice Using a HPLC-MS/MS Method” (Molecules, 2022).
